Target: T1, human MRGPRX2 (Homo sapiens, UniProt Q96LB1)
T1 construct: expressed in transfected cells; host or cells: CHO cells, stably transfected (G418 and Hygromycin B selection)
T1 sequence (Q96LB1 1-330): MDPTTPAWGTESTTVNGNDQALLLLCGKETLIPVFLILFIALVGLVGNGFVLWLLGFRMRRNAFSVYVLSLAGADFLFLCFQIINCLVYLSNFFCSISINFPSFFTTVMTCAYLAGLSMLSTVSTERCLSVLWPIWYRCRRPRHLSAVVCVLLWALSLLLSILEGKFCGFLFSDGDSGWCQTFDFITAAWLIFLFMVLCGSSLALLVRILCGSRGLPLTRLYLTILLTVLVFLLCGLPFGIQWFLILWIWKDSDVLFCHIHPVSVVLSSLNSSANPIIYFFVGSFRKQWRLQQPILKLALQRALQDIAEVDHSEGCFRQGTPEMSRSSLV
Assay: MRGPRX2 activity: IP-One Gq HTRF assay in CHO cells, antagonism versus 0.3 uM Cortistatin-14
Type: cell-based
Conditions: versus 0.3 uM Cortistatin-14 agonist, CHO cells expressing human MRGPRX2, read-out: MRGPRX2 Antagonist Activity
Method: CHO cells stably transfected to express human MRGPRX2 were maintained in an incubator at 37° C. with 5% CO2 and grown in F12 (HAM) media with 10% fetal bovine serum (FBS), 1% Glutamax, 1% penicillin/streptomycin, 800 μg/mL Geneticin (G418), and 300 μg/mL Hygromycin B.
Cells were plated in a 384-well assay plate at 20,000 cells per well in 12 μL of Opti-MEM and kept in an incubator overnight. On the day of the assay, compounds solubilized at 10 mM in DMSO were added as a 10-point curve (30 uM final top concentration with 1:3 serial dilutions) using a Tecan D300E digital dispenser. Agonists were diluted in assay buffer (final concentrations of 5.7 mM Tris-HCl, 43 mM NaCl, 50 mM LiCl, pH=8) and 2 μL of the agonist Cortistatin-14 (CPC Scientific, catalog CORT-002) are added to each well. Final concentrations of agonists were 0.3 μM Cortistatin. Final concentrations of DMSO were kept consistent across the plate. Plates were incubated in the dark for 1 h at 37° C. and then for 1 h at room temperature. IP-1 standards and HTRF detection reagents were added according to the IP-One—Gq Kit purchased from Cisbio (part number 62IPAPEJ) and incubated in the dark for 1 h at room temperature. The plate was read on a Molecular Devices SpectraMax iD5 plate reader. The HTRF ratio was calculated from the raw data and graphed using GraphPad Prism to calculate an IC50 value for each compound.
The activity ranges are denoted as follows: “+++++” denotes antagonist activity <100 nM; “++++” denotes antagonist activity between 100 and 500 nM; “+++” denotes activity between 501 and 1000 nM; “++” denotes activity between 1001 and 2500 nM; and “+” denotes activity >2500 nM.

Row | Compound | IC50 [nM]
1 | CC(C)(F)CNC1=NS(=O)(=O)c2cccc(Oc3ccccc3Cl)c2N1 [Compound 1-244, 5-(2-chlorophenoxy)-3-((2-fluoro-2-methylpropyl)amino)-4H-benzo[e][1,2,4]thiadiazine 1,1-dioxide] | 1000 to 2500
2 | O=S1(=O)N=C(NCc2ncccc2Cl)Nc2c1ccc(F)c2Oc1ccccc1Cl [Compound 2-2, 5-(2-chlorophenoxy)-3-(((3-chloropyridin-2-yl)methyl)amino)-6-fluoro-4H-benzo[e][1,2,4]thiadiazine 1,1-dioxide] | < 100
3 | C[C@@H](NC1=NS(=O)(=O)c2ccc(F)c(Oc3ccccc3Cl)c2N1)c1ccccc1F [Compound 2-3, (R)-5-(2-chlorophenoxy)-6-fluoro-3-((1-(2-fluorophenyl)ethyl)amino)-4H-benzo[e][1,2,4]thiadiazine 1,1-dioxide] | > 2500
4 | O=S1(=O)N=C(NCc2cccc(F)n2)Nc2c1ccc(F)c2Oc1ccccc1Cl [Compound 2-4, 5-(2-chlorophenoxy)-6-fluoro-3-(((6-fluoropyridin-2-yl)methyl)amino)-4H-benzo[e][1,2,4]thiadiazine 1,1-dioxide] | < 100
5 | O=S1(=O)N=C(NCc2cccnc2F)Nc2c1ccc(F)c2Oc1ccccc1Cl [Compound 2-5, 5-(2-chlorophenoxy)-6-fluoro-3-(((2-fluoropyridin-3-yl)methyl)amino)-4H-benzo[e][1,2,4]thiadiazine 1,1-dioxide] | 100 to 500
6 | O=S1(=O)N=C(NCc2cccc3ccccc23)Nc2c1ccc(F)c2Oc1ccccc1Cl [Compound 2-6, 5-(2-chlorophenoxy)-6-fluoro-3-((naphthalen-1-ylmethyl)amino)-4H-benzo[e][1,2,4]thiadiazine 1,1-dioxide] | 100 to 500
7 | O=S1(=O)N=C(NCc2ncccc2F)Nc2c1ccc(F)c2Oc1ccc(F)cc1 [Compound 2-7, 6-fluoro-5-(4-fluorophenoxy)-3-(((3-fluoropyridin-2-yl)methyl)amino)-4H-benzo[e][1,2,4]thiadiazine 1,1-dioxide] | 100 to 500
8 | O=S1(=O)N=C(NCc2ncccc2F)Nc2c1ccc(F)c2Oc1cccc(F)c1 [Compound 2-8, 6-fluoro-5-(3-fluorophenoxy)-3-(((3-fluoropyridin-2-yl)methyl)amino)-4H-benzo[e][1,2,4]thiadiazine 1,1-dioxide] | 100 to 500
9 | O=S1(=O)N=C(NCc2ncccc2F)Nc2c1ccc(F)c2Oc1ccc(Cl)cc1 [Compound 2-9, 5-(4-chlorophenoxy)-6-fluoro-3-(((3-fluoropyridin-2-yl)methyl)amino)-4H-benzo[e][1,2,4]thiadiazine 1,1-dioxide] | 100 to 500
10 | O=S1(=O)N=C(NCc2ncccc2F)Nc2c1ccc(F)c2Oc1cccc(Cl)c1 [Compound 2-10, 5-(3-chlorophenoxy)-6-fluoro-3-(((3-fluoropyridin-2-yl)methyl)amino)-4H-benzo[e][1,2,4]thiadiazine 1,1-dioxide] | 100 to 500
11 | COc1ccc(Oc2c(F)ccc3c2NC(NCc2ncccc2F)=NS3(=O)=O)cc1 [Compound 2-11, 6-fluoro-3-(((3-fluoropyridin-2-yl)methyl)amino)-5-(4-methoxyphenoxy)-4H-benzo[e][1,2,4]thiadiazine 1,1-dioxide] | 1000 to 2500
12 | N#Cc1ccc(Oc2c(F)ccc3c2NC(NCc2ncccc2F)=NS3(=O)=O)cc1 [Compound 2-12, 4-((6-fluoro-3-(((3-fluoropyridin-2-yl)methyl)amino)-1,1-dioxido-4H-benzo[e][1,2,4]thiadiazin-5-yl)oxy)benzonitrile] | 1000 to 2500
13 | N#Cc1cccc(Oc2c(F)ccc3c2NC(NCc2ncccc2F)=NS3(=O)=O)c1 [Compound 2-13, 3-((6-fluoro-3-(((3-fluoropyridin-2-yl)methyl)amino)-1,1-dioxido-4H-benzo[e][1,2,4]thiadiazin-5-yl)oxy)benzonitrile] | 501 to 1000
14 | N#Cc1ccc2c(c1Oc1ccccc1F)NC(NCc1ncccc1Cl)=NS2(=O)=O [Compound 3-1, 3-(((3-chloropyridin-2-yl)methyl)amino)-5-(2-fluorophenoxy)-4H-benzo[e][1,2,4]thiadiazine-6-carbonitrile 1,1-dioxide] | < 100
15 | N#Cc1ccc2c(c1Oc1ccccc1Cl)NC(NCc1ncccc1F)=NS2(=O)=O [Compound 3-2, 5-(2-chlorophenoxy)-3-(((3-fluoropyridin-2-yl)methyl)amino)-4H-benzo[e][1,2,4]thiadiazine-6-carbonitrile 1,1-dioxide] | < 100
16 | O=S1(=O)N=C(NCc2ncccc2F)Nc2c1ccc(F)c2Cc1ccccc1Cl [Compound 4-1, 5-(2-chlorobenzyl)-6-fluoro-3-(((3-fluoropyridin-2-yl)methyl)amino)-4H-benzo[e][1,2,4]thiadiazine 1,1-dioxide] | < 100
17 | O=S1(=O)N=C(NCc2cccc(F)n2)Nc2c1ccc(F)c2Cc1ccccc1Cl [Compound 4-2, 5-(2-chlorobenzyl)-6-fluoro-3-(((6-fluoropyridin-2-yl)methyl)amino)-4H-benzo[e][1,2,4]thiadiazine 1,1-dioxide] | 100 to 500
18 | O=S1(=O)N=C(NCc2cccc(Cl)c2F)Nc2c1ccc(F)c2Cc1ccccc1Cl [Compound 4-3, 3-((3-chloro-2-fluorobenzyl)amino)-5-(2-chlorobenzyl)-6-fluoro-4H-benzo[e][1,2,4]thiadiazine 1,1-dioxide] | < 100
19 | O=S1(=O)N=C(NCc2ccccc2F)Nc2c1ccc(F)c2Cc1ccccc1Cl [Compound 4-4, 5-(2-chlorobenzyl)-6-fluoro-3-((2-fluorobenzyl)amino)-4H-benzo[e][1,2,4]thiadiazine 1,1-dioxide] | 100 to 500
20 | O=S1(=O)N=C(NCc2ncccc2F)Nc2c1cc(F)c(F)c2Cc1ccccc1Cl [Compound 4-5, 5-(2-chlorobenzyl)-6,7-difluoro-3-(((3-fluoropyridin-2-yl)methyl)amino)-4H-benzo[e][1,2,4]thiadiazine 1,1-dioxide] | 100 to 500
21 | O=S1(=O)N=C(NCc2ccccc2F)Nc2c1cc(F)c(F)c2Cc1ccccc1Cl [Compound 4-6, 5-(2-chlorobenzyl)-6,7-difluoro-3-((2-fluorobenzyl)amino)-4H-benzo[e][1,2,4]thiadiazine 1,1-dioxide] | 100 to 500
22 | O=S1(=O)N=C(NCc2cccnc2F)Nc2c1cc(F)c(F)c2Cc1ccccc1Cl [Compound 4-7, 5-(2-chlorobenzyl)-6,7-difluoro-3-(((2-fluoropyridin-3-yl)methyl)amino)-4H-benzo[e][1,2,4]thiadiazine 1,1-dioxide] | 1000 to 2500
23 | O=S1(=O)N=C(NCc2ccc(F)cc2F)Nc2c1cc(F)c(F)c2Cc1ccccc1Cl [Compound 4-8, 5-(2-chlorobenzyl)-3-((2,4-difluorobenzyl)amino)-6,7-difluoro-4H-benzo[e][1,2,4]thiadiazine 1,1-dioxide] | 100 to 500
24 | COc1ccccc1CNC1=NS(=O)(=O)c2cc(F)c(F)c(Cc3ccccc3Cl)c2N1 [Compound 4-9, 5-(2-chlorobenzyl)-6,7-difluoro-3-((2-methoxybenzyl)amino)-4H-benzo[e][1,2,4]thiadiazine 1,1-dioxide] | 501 to 1000
25 | O=S1(=O)N=C(NCc2cc(F)ccc2F)Nc2c1cc(F)c(F)c2Cc1ccccc1Cl [Compound 4-10, 5-(2-chlorobenzyl)-3-((2,5-difluorobenzyl)amino)-6,7-difluoro-4H-benzo[e][1,2,4]thiadiazine 1,1-dioxide] | 100 to 500
26 | O=S1(=O)N=C(NCc2cccc(F)n2)Nc2c1cc(F)c(F)c2Cc1ccccc1Cl [Compound 4-11, 5-(2-chlorobenzyl)-6,7-difluoro-3-(((6-fluoropyridin-2-yl)methyl)amino)-4H-benzo[e][1,2,4]thiadiazine 1,1-dioxide] | 100 to 500
27 | O=S1(=O)N=C(NCc2cccc(F)c2)Nc2c1cc(F)c(F)c2Cc1ccccc1Cl [Compound 4-12, 5-(2-chlorobenzyl)-6,7-difluoro-3-((3-fluorobenzyl)amino)-4H-benzo[e][1,2,4]thiadiazine 1,1-dioxide] | 100 to 500
28 | O=S1(=O)N=C(NCc2ccc(F)cc2)Nc2c1cc(F)c(F)c2Cc1ccccc1Cl [Compound 4-13, 5-(2-chlorobenzyl)-6,7-difluoro-3-((4-fluorobenzyl)amino)-4H-benzo[e][1,2,4]thiadiazine 1,1-dioxide] | 501 to 1000
29 | O=S1(=O)N=C(NCc2cccc(Cl)c2F)Nc2c1cc(F)c(F)c2Cc1ccccc1Cl [Compound 4-14, 3-((3-chloro-2-fluorobenzyl)amino)-5-(2-chlorobenzyl)-6,7-difluoro-4H-benzo[e][1,2,4]thiadiazine 1,1-dioxide] | 100 to 500
